The text below walks through data of US12473299B2, “Cross-linked nucleoside and nucleotide using same” (Osaka University, priority 2020, dated 2025).

What all share (type): binding
In data set [1] the test system is single-stranded oligo RNA 5′-r(AGCAAAAAACGC)-3′ (SEQ ID No. 18). The data set can be described thus: Double-strand forming ability (Tm) with single-stranded oligo RNA. Particulars: for RNA Complement ΔTm: difference from the Tm of the sequence (18); for RNA Complement Tm: sequences (18) to (21), as in Example 9; for ssRNA Tm: oligonucleotide 4 μM, 10 mM phosphate buffer pH 7.2, 100 mM NaCl, mean of three measurements; for ssRNA ΔTm/mod.: Tm change per artificially modified nucleic acid base vs 5′-GCGTTTTTTGCT-3′.

For data set [2], the system named is single-stranded oligo RNA 5′-r([…])-3′ (SEQ ID No. 36). Briefly: Double-strand forming ability (Tm) of mMALAT1 antisense oligonucleotides with RNA. Particulars: for RNA Complement Tm: as in Example 9; for RNA Complement ΔTm: difference from the Tm of the sequence (26). As for the experimental part:
(§1) The double-strand forming ability of the oligonucleotides was examined by subjecting the different types of oligonucleotides and the target strands to an annealing treatment to form double strands, and then measuring their Tm values. More specifically, a mixed liquid of each oligonucleotide (final concentration: 4 μM) and a phosphate buffer (10 mM, pH 7.2, 130 μL) containing sodium chloride (final concentration: 100 mM) was bathed in boiling water and then slowly cooled to room temperature. After that, the mixed liquid was cooled to 5° C. under nitrogen stream before starting the measurement. The temperature was raised to 90° C. at a rate of 0.5° C./min while absorbance at 260 nm was plotted at intervals of 0.5° C. The Tm value was calculated using a median method or differentiation (SEQ ID No. 17), and a mean value of three independent measurements was adopted.
Furthermore, the double-strand forming ability for RNA, of each oligonucleotide was assessed in a manner similar to that of Example 9. Two sequences shown in Table 42 below were used as controls (also represented by SEQ ID Nos. 34 and 35, respectively).
A single-stranded oligo RNA 5′-r([…])-3′ (SEQ ID No. 36) was used as a target strand.

Data set [3] concerns single-stranded oligo DNA 5′-d(AGCAAAAAACGC)-3′ (SEQ ID No. 19). The data set can be described thus: Double-strand forming ability (Tm) with single-stranded oligo DNA. Particulars: for ssDNA Tm: oligonucleotide 4 μM, 10 mM phosphate buffer pH 7.2, 100 mM NaCl, mean of three measurements; for ssDNA ΔTm/mod.: Tm change per artificially modified nucleic acid base vs 5′-GCGTTTTTTGCT-3′. As to the method:
as §1

In the oligonucleotide strings, read from the 5' end, every base follows the letter of its sugar. An asterisk marks phosphorothioate; unmarked linkages are phosphodiester. Other units and linkages are bracketed, terminal groups are in braces. A string of capitals states the bases alone. [BANA] = BANA-modified thymidine; l = locked nucleic acid (LNA); [HNA] = hexitol nucleic acid; [5mC] = 5-methylcytosine; d = 2'-deoxy (DNA)

Take “5′-d(GCGTT33LTGCT)-3′ (DNA GCGTTTTTTGCT; LNA-T and BANA-T3 modified nucleotides; modified_base (6)..(7) t = BANA-t3; modified_base (8)..(8) t =LNA-t) [(21), L=LNA-T, 3=Compound 25 (BANA-T3)]”: in data set [1], the “RNA Complement ΔTm” value is −2 °C and the “RNA Complement Tm” value is 61 °C.
Take “5′-d(5^T^^LA^g^t^t^c^a^c^t^g^a^a^T^LG^5)-3′ (antisense CTAGTTCACTGAATGC; BANA and LNA modifications, phosphorothioate linkages; modified_base (1)..(1) c = SANA-mC3; modified_base (2)..(2) t = SANA-t3; modified_base (2)..(13) phosphorothioated; modified_base (3)..(3) a = LNA-a; modified_base (14)..(14) t = SANA-t3; modified_base (15)..(15) g = LNA-g; modified_base (16)..(16) c = SANA-mC3) [(24), antisense oligonucleotide against mMALAT1; 5: BANA-^mC3, T: BANA-T3]”: in data set [2], the “RNA Complement Tm” value is 61.7 °C and the “RNA Complement ΔTm” value is −0.4 °C.
As to “5′-d(5T^LA^g^t^t^c^a^c^t^g^a^a^T^^LG^5)-3′ (antisense CTAGTTCACTGAATGC; BANA and LNA modifications, phosphorothioate linkages; modified_base (1)..(1) c = SANA-mC3; modified_base (2)..(2) t = SANA-t3; modified_base (3)..(3) a = LNA-a; modified_base (4)..(16) phosphorothioated; modified_base (14)..(14) t = SANA-t3; modified_base (15)..(15) g = LNA-g; modified_base (16)..(16) c = SANA-mC3) [(23), antisense oligonucleotide against mMALAT1; 5: BANA-^mC3, T: BANA-T3]”, in data set [2], the “RNA Complement Tm” value came to 61.0 °C and the “RNA Complement ΔTm” value was −1.1 °C.
For the substance “5′-d(GCGTTL33TGCT)-3′ (DNA GCGTTTTTTGCT; LNA-T and BANA-T3 modified nucleotides; modified_base (6)..(6) t = LNA-t; modified_base (7)..(8) t = BANA-t3) [(19), L=LNA-T, 3=Compound 25 (BANA-T3)]”, in data set [1], the “RNA Complement ΔTm” value is “+1 °C” and the “RNA Complement Tm” value was 64 °C.
For the substance “5′-d(GCGTTTTTTGCT)-3′ (DNA, backbone and methylation of C not given here) [native DNA (dT), reference compound]”, the “ssDNA Tm” value in data set [3] came to 51 °C. Also, the “ssRNA Tm” value in data set [1] was determined as 48 °C.
Take “5′-d(GCGTTHTTTGCT)-3′ (DNA GCGTTTTTTGCT; sugars from the 5' end d5 [HNA]1 d6, backbone not given here) [H=HNA-T, reference compound]”: in data set [3], the “ssDNA ΔTm/mod.” value is −4 °C and the “ssDNA Tm” value came out at 47 °C. Besides, in data set [1], the “ssRNA ΔTm/mod.” value was “+1 °C” and the “ssRNA Tm” value stood at 49 °C.
Take “5′-d(c^t^a^g^t^t^c^a^c^t^g^a^a^t^g^c)-3′ (antisense dC*dT*dA*dG*dT*dT*dC*dA*dC*dT*dG*dA*dA*dT*dG*dC) [(27), control, PS DNA, reference compound]”: in data set [2], the “RNA Complement Tm” value came out at 44.2 °C and the “RNA Complement ΔTm” value is −17.9 °C.
For “5′-d(5^T^^LA^g^t^t^c^a^c^t^g^a^a^T^^LG^5)-3′ (antisense CTAGTTCACTGAATGC; sugars from the 5' end [BANA][BANA]ldddddddddd[BANA]l[BANA], [5mC] at 1, 16, all phosphorothioate, methylation of C not given here) [(22), antisense oligonucleotide against mMALAT1; 5: BANA-^mC3, T: BANA-T3, {circumflex}: PS]” the same measures were 60.3 °C and −1.8 °C.
On to “5′-d(GCG111111GCT)-3′ (DNA GCGTTTTTTGCT; BANA-T1 modified nucleotides; modified_base (4)..(9) ANA-t1) [5′-GCG111111GCT-3′]”, for which, in data set [3], the “ssDNA ΔTm/mod.” value was −1.8 °C and the “ssDNA Tm” value turned out to be 40 °C. In addition, in data set [1], the “ssRNA ΔTm/mod.” value is “+3.3 °C” and the “ssRNA Tm” value worked out at 68 °C.
For “5′-d(GCG222222GCT)-3′ (DNA GCGTTTTTTGCT; BANA-T2 modified nucleotides; modified_base (4)..(9) t = BANA-t2) [5′-GCG222222GCT-3′, 2=Compound 19 (BANA-T2)]” the same measures were −0.7 °C, 47 °C, “+4.5 °C” and 75 °C.
“5′-d(^LC^^LT^^LA^g^t^t^c^a^c^t^g^a^a^^LT^^LG^^LC)-3′ (antisense CTAGTTCACTGAATGC; sugars from the 5' end l3 d10 l3, all phosphorothioate, methylation of C not given here) [(26), control, LNA gapmer with PS, reference compound]”: the “RNA Complement Tm” value in data set [2] turned out to be 62.1 °C.
As for “5′-d(GCGTTLLLTGCT)-3′ (DNA GCGTTTTTTGCT; sugars from the 5' end d5 l3 d4, backbone not given here) [(18), L=LNA-T (LNA), reference compound]”, the “RNA Complement Tm” value in data set [1] came out at 63 °C.
Consider “5′-d(5T^LA^g^t^t^c^a^c^t^g^a^a^T^LG^5)-3′ (antisense CTAGTTCACTGAATGC; BANA and LNA modifications, phosphorothioate linkages; modified_base (1)..(1) c = BANA-mC3; modified_base (2)..(2) t = BANA-t3; modified_base (3)..(3) a = LNA-a; modified_base (3)..(13) phosphorothioated; modified_base (14)..(14) t = BANA-t3; modified_base (15)..(15) g = LNA-g; modified_base (16)..(16) c = BANA-mC3) [(25), antisense oligonucleotide against mMALAT1; 5: BANA-^mC3, T: BANA-T3]”, for which, in data set [2], the “RNA Complement Tm” value is 63.4 °C and the “RNA Complement ΔTm” value is “+1.3 °C”.
Regarding “5′-d(GCGTT1TTTGCT)-3′ (DNA GCGTTTTTTGCT; BANA-T1 modified nucleotide; modified_base (6)..(6) t = BANA-t1) [5′-GCGTT1TTTGCT-3′]”, in data set [3], the “ssDNA ΔTm/mod.” value is −10 °C and the “ssDNA Tm” value came out at 41 °C. Further, in data set [1], the “ssRNA ΔTm/mod.” value is −4 °C and the “ssRNA Tm” value is 44 °C.
On to “5′-d(GCGTT3L3TGCT)-3′ (DNA GCGTTTTTTGCT; LNA-T and BANA-T3 modified nucleotides; modified_base (6)..(6) t = BANA-t3; modified_base (7)..(7) t = LNA-t; modified_base (8)..(8) t = BANA-t3) [(20), L=LNA-T, 3=Compound 25 (BANA-T3)]”, for which, in data set [1], the “RNA Complement ΔTm” value is −3 °C and the “RNA Complement Tm” value was determined as 60 °C.
